Activity calls are given as the source filed them. The rule behind the calls is not given here.
System: CCRIS mutagenicity, Ames/micronucleus/aberration tests
Experiment: CCRIS mutagenicity studies
[1] = Test System: AMES SALMONELLA TYPHIMURIUM, Strain/Indicator: TA97, Metabolic Activation: HAMSTER, LIVER, S-9, AROCLOR 1254 (10 OR 30%), Method: PREINCUBATION
[2] = Test System: AMES SALMONELLA TYPHIMURIUM, Strain/Indicator: TA97, Metabolic Activation: NONE, Method: PREINCUBATION
[3] = Test System: AMES SALMONELLA TYPHIMURIUM, Strain/Indicator: TA97, Metabolic Activation: RAT, LIVER, S-9, AROCLOR 1254 (10 OR 30%), Method: PREINCUBATION
[4] = Test System: AMES SALMONELLA TYPHIMURIUM, Strain/Indicator: TA98, Metabolic Activation: NONE, Method: PREINCUBATION
[5] = Test System: AMES SALMONELLA TYPHIMURIUM, Strain/Indicator: TA98, Metabolic Activation: RAT, LIVER, S-9, AROCLOR 1254 (10 OR 30%), Method: PREINCUBATION
[6] = Test System: AMES SALMONELLA TYPHIMURIUM, Strain/Indicator: TA100, Metabolic Activation: NONE, Method: PREINCUBATION
[7] = Test System: AMES SALMONELLA TYPHIMURIUM, Strain/Indicator: TA100, Metabolic Activation: RAT, LIVER, S-9, AROCLOR 1254 (10 OR 30%), Method: PREINCUBATION
[8] = Test System: AMES SALMONELLA TYPHIMURIUM, Strain/Indicator: TA1535, Metabolic Activation: NONE, Method: PREINCUBATION
[9] = Test System: AMES SALMONELLA TYPHIMURIUM, Strain/Indicator: TA98, Metabolic Activation: HAMSTER, LIVER, S-9, AROCLOR 1254 (10%), Method: PREINCUBATION
[10] = Test System: AMES SALMONELLA TYPHIMURIUM, Strain/Indicator: TA100, Metabolic Activation: HAMSTER, LIVER, S-9, AROCLOR 1254 (10%), Method: PREINCUBATION
[11] = Test System: AMES SALMONELLA TYPHIMURIUM, Strain/Indicator: TA1535, Metabolic Activation: HAMSTER, LIVER, S-9, AROCLOR 1254 (10%), Method: PREINCUBATION
[12] = Test System: AMES SALMONELLA TYPHIMURIUM, Strain/Indicator: TA1535, Metabolic Activation: RAT, LIVER, S-9, AROCLOR 1254 (10%), Method: PREINCUBATION
[13] = Test System: AMES SALMONELLA TYPHIMURIUM, Strain/Indicator: TA98, Metabolic Activation: NONE, Method: STANDARD PLATE
[14] = Test System: AMES SALMONELLA TYPHIMURIUM, Strain/Indicator: TA100, Metabolic Activation: NONE, Method: STANDARD PLATE
[15] = Test System: AMES SALMONELLA TYPHIMURIUM, Strain/Indicator: TA100, Metabolic Activation: RAT, LIVER, S-9, AROCLOR 1254, Method: STANDARD PLATE
[16] = Test System: AMES SALMONELLA TYPHIMURIUM, Strain/Indicator: TA102, Metabolic Activation: NONE, Method: STANDARD PLATE
[17] = Test System: AMES SALMONELLA TYPHIMURIUM, Strain/Indicator: TA102, Metabolic Activation: RAT, LIVER, S-9, AROCLOR 1254, Method: STANDARD PLATE

Measured: mutagenic call

Nc1ccccc1C(=O)OCCc1ccccc1
inactive: [1] inactive; negative | [2] inactive; negative | [3] inactive; negative | Test System: AMES SALMONELLA TYPHIMURIUM, Strain/Indicator: TA98, Metabolic Activation: HAMSTER, LIVER, S-9, AROCLOR 1254 (10 OR 30%), Method: PREINCUBATION inactive; negative | [4] inactive; negative | [5] inactive; negative | Test System: AMES SALMONELLA TYPHIMURIUM, Strain/Indicator: TA100, Metabolic Activation: HAMSTER, LIVER, S-9, AROCLOR 1254 (10 OR 30%), Method: PREINCUBATION inactive; negative | [6] inactive; negative | [7] inactive; negative | Test System: AMES SALMONELLA TYPHIMURIUM, Strain/Indicator: TA1535, Metabolic Activation: HAMSTER, LIVER, S-9, AROCLOR 1254 (10 OR 30%), Method: PREINCUBATION inactive; negative | [8] inactive; negative | Test System: AMES SALMONELLA TYPHIMURIUM, Strain/Indicator: TA1535, Metabolic Activation: RAT, LIVER, S-9, AROCLOR 1254 (10 OR 30%), Method: PREINCUBATION inactive; negative

CC(C)=CCC[C@@](C)(O)[C@H]1CCC=CC1=O
active: Test System: AMES SALMONELLA TYPHIMURIUM, Strain/Indicator: TM677, Metabolic Activation: NONE, Method: STANDARD PLATE active; positive | Test System: AMES SALMONELLA TYPHIMURIUM, Strain/Indicator: TM677, Metabolic Activation: RAT, LIVER, S-9, AROCLOR 1254, Method: STANDARD PLATE active; positive

O=Nc1ccc(O)cc1
active: Test System: AMES SALMONELLA TYPHIMURIUM, Strain/Indicator: TA98, Metabolic Activation: HAMSTER, LIVER, S-9, AROCLOR 1254 (30%), Method: PREINCUBATION active; positive | [4] active; positive | Test System: AMES SALMONELLA TYPHIMURIUM, Strain/Indicator: TA100, Metabolic Activation: HAMSTER, LIVER, S-9, AROCLOR 1254 (30%), Method: PREINCUBATION active; positive
inactive: [1] inactive; negative | [2] inactive; negative | [3] inactive; negative | [9] inactive; negative | [5] inactive; negative | [10] inactive; negative | [6] inactive; negative | [7] inactive; negative | [11] inactive; negative | [8] inactive; negative | [12] inactive; negative

Fc1cccc(F)n1
inactive: Test System: AMES SALMONELLA TYPHIMURIUM, Strain/Indicator: TA97, Metabolic Activation: NONE, Method: STANDARD PLATE inactive; negative | Test System: AMES SALMONELLA TYPHIMURIUM, Strain/Indicator: TA97, Metabolic Activation: RAT, LIVER, S-9, AROCLOR 1254, Method: STANDARD PLATE inactive; negative | [13] inactive; negative | Test System: AMES SALMONELLA TYPHIMURIUM, Strain/Indicator: TA98, Metabolic Activation: RAT, LIVER, S-9, AROCLOR 1254, Method: STANDARD PLATE inactive; negative | [14] inactive; negative | [15] inactive; negative | [16] inactive; negative | [17] inactive; negative

NN(Cc1ccccc1)Cc1ccccc1
inactive: [14] inactive; negative | [15] inactive; negative | [16] inactive; negative | [17] inactive; negative

CC(C)CCC(C)Nc1ccc(NC(C)CCC(C)C)cc1 (configuration not stated)
inactive: [9] inactive; negative | [4] inactive; negative | Test System: AMES SALMONELLA TYPHIMURIUM, Strain/Indicator: TA98, Metabolic Activation: RAT, LIVER, S-9, AROCLOR 1254 (10%), Method: PREINCUBATION inactive; negative | [10] inactive; negative | [6] inactive; negative | Test System: AMES SALMONELLA TYPHIMURIUM, Strain/Indicator: TA100, Metabolic Activation: RAT, LIVER, S-9, AROCLOR 1254 (10%), Method: PREINCUBATION inactive; negative | [11] inactive; negative | [8] inactive; negative | [12] inactive; negative | Test System: AMES SALMONELLA TYPHIMURIUM, Strain/Indicator: TA1537, Metabolic Activation: HAMSTER, LIVER, S-9, AROCLOR 1254 (10%), Method: PREINCUBATION inactive; negative | Test System: AMES SALMONELLA TYPHIMURIUM, Strain/Indicator: TA1537, Metabolic Activation: NONE, Method: PREINCUBATION inactive; negative | Test System: AMES SALMONELLA TYPHIMURIUM, Strain/Indicator: TA1537, Metabolic Activation: RAT, LIVER, S-9, AROCLOR 1254 (10%), Method: PREINCUBATION inactive; negative

CCC1(CC(=O)O)OCCc2c1[nH]c1c(C(C)O)cccc21 (configuration not stated)
inactive: [13] inactive; negative | Test System: AMES SALMONELLA TYPHIMURIUM, Strain/Indicator: TA98, Metabolic Activation: RAT, LIVER, S-9, Method: STANDARD PLATE inactive; negative | [14] inactive; negative | Test System: AMES SALMONELLA TYPHIMURIUM, Strain/Indicator: TA100, Metabolic Activation: RAT, LIVER, S-9, Method: STANDARD PLATE inactive; negative | Test System: AMES SALMONELLA TYPHIMURIUM, Strain/Indicator: TA1535, Metabolic Activation: NONE, Method: STANDARD PLATE inactive; negative | Test System: AMES SALMONELLA TYPHIMURIUM, Strain/Indicator: TA1535, Metabolic Activation: RAT, LIVER, S-9, Method: STANDARD PLATE inactive; negative | Test System: AMES SALMONELLA TYPHIMURIUM, Strain/Indicator: TA1537, Metabolic Activation: NONE, Method: STANDARD PLATE inactive; negative | Test System: AMES SALMONELLA TYPHIMURIUM, Strain/Indicator: TA1537, Metabolic Activation: RAT, LIVER, S-9, Method: STANDARD PLATE inactive; negative | Test System: E. COLI, Strain/Indicator: WP2 UVRA, Metabolic Activation: NONE, Method: STANDARD PLATE inactive; negative | Test System: E. COLI, Strain/Indicator: WP2 UVRA, Metabolic Activation: RAT, LIVER, S-9, Method: STANDARD PLATE inactive; negative
